Source: US20260001914A1, “MACROCYCLIC PEPTIDES TARGETING KRAS” (Merck Sharp & Dohme LLC, priority 2022, published 2026)
*1 amine or outer side, *2 acyl side, *3 side chain or, on linkers, in order; H or OH if unused. Where a SMILES comes first, the peptide text is derived from it. Bridges are numbered along the chain shown (N, C = ends). [ ]: non-standard residue; d: D form. Phe(4-guanidino) = N=C(N)Nc1ccc(C[C@H](N)C(=O)O)cc1; Ala(pyrimidin-5-yl) = N[C@@H](Cc1cncnc1)C(=O)O; X36 = CN([C@@H](Cc1cnn(C)c1)C(=O)[*:2])[*:1]; X8 = CN([C@@H](Cc1ccc(F)nc1)C(=O)[*:2])[*:1]; NMe3Pal(5-F) = CN[C@@H](Cc1cncc(F)c1)C(=O)O; Phe(4-CH2NH2) = NCc1ccc(C[C@H](N)C(=O)O)cc1; X43 = CN([C@@H](Cc1cnccc1F)C(=O)[*:2])[*:1]; Lys(N3) = [N-]=[N+]=NCCCC[C@H](N)C(=O)O; X11 = CC(C)(F)CC[C@H](N[*:1])C(=O)[*:2]; Phe(4-F) = N[C@@H](Cc1ccc(F)cc1)C(=O)O; 1Nal = N[C@@H](Cc1cccc2ccccc12)C(=O)O; Ala(4-THP) = N[C@@H](CC1CCOCC1)C(=O)O; NHCH2CH2SCH2CO = O=C(CSCCN[*:1])[*:2]; X21 = O=C([C@@H]1C[C@H]1CN[*:1])[*:2]; Phe(2-F) = N[C@@H](Cc1ccccc1F)C(=O)O; NMe3Pal = CN[C@@H](Cc1cccnc1)C(=O)O; X1 = O=C(C12CC(CN[*:1])(C1)C2)[*:2]; NMeR = CN[C@@H](CCCNC(=N)N)C(=O)O; Ala(cPr) = N[C@@H](CC1CC1)C(=O)O; NMeF = CN[C@@H](Cc1ccccc1)C(=O)O; PhLac = O=C(O)[C@@H](O)Cc1ccccc1; 3Pal = N[C@@H](Cc1cccnc1)C(=O)O; 4Pal = N[C@@H](Cc1ccncc1)C(=O)O; d(αMeC) = C[C@@](N)(CS)C(=O)O; Ahp(2) = CCCCC[C@H](N)C(=O)O; Cba = N[C@@H](CC1CCC1)C(=O)O; hLeu = CC(C)CC[C@H](N)C(=O)O; NMeS = CN[C@@H](CO)C(=O)O; αMeC = C[C@](N)(CS)C(=O)O; NMeA = CN[C@@H](C)C(=O)O; Nle = CCCC[C@H](N)C(=O)O; Nva = CCC[C@H](N)C(=O)O

The molecules below were run against KRAS-G12D protein (Homo sapiens, UniProt P01116, G12D) (assay: SOS-mediated nucleotide exchange assay (BODIPY-GDP / Tb-streptavidin TR-FRET)).
Chain of KRAS-G12D protein (P01116 1-188 isoform P01116-2 G12D): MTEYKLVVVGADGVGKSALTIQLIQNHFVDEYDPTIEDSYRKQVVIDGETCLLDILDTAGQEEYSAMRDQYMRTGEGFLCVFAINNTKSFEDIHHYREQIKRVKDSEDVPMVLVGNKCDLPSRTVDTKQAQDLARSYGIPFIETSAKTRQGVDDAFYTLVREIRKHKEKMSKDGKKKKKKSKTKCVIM
Type: biochemical

Row | SMILES | EC50 [µM]
1 | COc1ccc(C[C@@H]2NC(=O)[C@H](CC3CCC3)NC(=O)[C@H](Cc3cccnc3)NC(=O)[C@H](CCCNC(=N)N)NC(=O)[C@H](Cc3ccccc3)NC(=O)CSC[C@](C)(C(N)=O)NC(=O)[C@@H]3CCCCCCCC[C@H](NC2=O)C(=O)N3C)cc1 [SEQ ID NO: 193, cyclo(F-R-3Pal-cBuA-TyrOMe-AheNMeAhe-aMeC-C1Ac)] | 0.9
2 | CON=C1C[C@@H](Cc2ccccc2)C(=O)N(C)[C@@H](C)C(=O)N[C@@H](Cc2cncnc2)C(=O)N[C@@H](CC2CC2)C(=O)N[C@@H](Cc2ccccc2F)C(=O)N[C@@H](CCC(C)(F)F)C(=O)N(C)[C@@H](Cc2ccccc2)C(=O)NCC23CC1(C2)C3 (single isomer, unassigned) [compound 178, cyclo(CPhe-NMeA-PyrimAla-cPrA-Phe2F-Nle3F2-NMeF-MeOximamBCP)] | 0.0017
3 | CCCC[C@@H]1NC(=O)[C@H](Cc2ccc(OC)cc2)NC(=O)[C@H](CC2CCC2)NC(=O)[C@H](Cc2cccnc2)NC(=O)[C@H](CCCNC(=N)N)NC(=O)[C@H](Cc2ccccc2)NC(=O)C23CC(CNC(=O)[C@H](Cc4ccccc4)N(C)C1=O)(C2)C3 [compound 98, cyclo(F-R-3Pal-cBuA-TyrOMe-Nle-NMeF-amBCP)] (cyclo(FR[3Pal][Cba]Y(Me)[Nle][NMeF][X1])) | 0.00547
4 | CCC[C@@H]1NC(=O)[C@H](Cc2ccc(OC)cc2)NC(=O)[C@H](CC(C)C)NC(=O)[C@H](Cc2ccncc2)NC(=O)[C@H](CCCNC(=N)N)NC(=O)[C@H](Cc2ccc(F)cc2)NC(=O)CSCCNC(=O)[C@H](Cc2ccccc2)N(C)C1=O [compound 88, cyclo(Phe4F-R-4Pal-L-TyrOMe-Nva-NMeF-Cysteamine-ClAc)] (cyclo([4Pal]LY(Me)[Nva][NMeF][NHCH2CH2SCH2CO][Phe(4-F)]R)) | 3.01
5 | CCCCC[C@@H]1NC(=O)[C@H](Cc2ccc(OC)cc2)NC(=O)[C@H](CC2CCC2)NC(=O)[C@H](Cc2ccc(NC(=N)N)cc2)NC(=O)[C@H](CCCNC(=N)N)NC(=O)[C@H](Cc2ccccc2)NC(=O)CSC[C@@](C)(C(N)=O)NC(=O)[C@H](Cc2ccccc2)N(C)C1=O [compound 346, cyclo(F-R-Phe4Gn-cBuA-TyrOMe-Ahp-NMeF-aMeCl-ClAc)] ({CH2CO}-FR[Phe(4-guanidino)][Cba]Y(Me)[Ahp(2)][NMeF][αMeC]-NH2; thioether N-8) | 0.00124
6 | CCCC[C@@H]1NC(=O)[C@H](Cc2cccnc2)NC(=O)[C@H](C)N(C)C(=O)[C@H](Cc2ccccc2)OC(=O)C23CC(CNC(=O)[C@H](Cc4cnn(C)c4)N(C)C(=O)[C@H](CCCC)NC(=O)[C@H](Cc4ccccc4F)NC1=O)(C2)C3 [compound 403, cyclo(FLac-NMeA-3Pal-Nle-Phe2F-Nle-NMeAla4PyzlMe-amBCP)] (cyclo([3Pal][Nle][Phe(2-F)][Nle][X36][X1][PhLac][NMeA])) | 0.017
7 | CCC[C@@H]1NC(=O)[C@H](Cc2ccc(OC)cc2)NC(=O)[C@H](CC(C)C)NC(=O)[C@H](Cc2ccncc2)NC(=O)[C@H](CCCNC(=N)N)NC(=O)[C@H](Cc2ccc(F)cc2)NC(=O)CSC[C@H](C(=O)NCC(=O)NCC(=O)O)NC(=O)[C@H](Cc2ccccc2)N(C)C1=O [compound 66, cyclo(Phe4F-R-4Pal-L-TyrOMe-Nva-NMeF-dC6-ClAc)] ({CH2CO}-[Phe(4-F)]R[4Pal]LY(Me)[Nva][NMeF][dC]GG-OH; thioether N-8) | 0.369
8 | CC(C)CC[C@@H]1NC(=O)[C@H](Cc2ccccc2F)NC(=O)[C@H](CC2CC2)NC(=O)[C@H](Cc2cncnc2)NC(=O)[C@H](C)N(C)C(=O)[C@H](Cc2ccccc2)OC(=O)C23CC(CNC(=O)[C@H](Cc4cnccc4F)N(C)C1=O)(C2)C3 [compound 338, cyclo(FLac-NMeA-PyrimAla-cPrA-Phe2F-hL-NMe3Pal6F-amBCP)] (cyclo([Ala(cPr)][Phe(2-F)][hLeu][X43][X1][PhLac][NMeA][Ala(pyrimidin-5-yl)])) | 0.002
9 | CCCC[C@@H]1NC(=O)[C@H](Cc2ccc(CNC(C)=O)cc2)NC(=O)[C@H](CCCNC(=N)N)NC(=O)[C@H](Cc2cccc3ccccc23)NC(=O)CSC[C@](C)(C(=O)O)NC(=O)[C@H](Cc2ccccc2)N(C)C(=O)[C@H](CCCC)NC(=O)[C@H](Cc2ccc(O)cc2)NC1=O [compound 145, cyclo(INal-R-Phe4CH2NHAc-Nle-Y-Nle-NMeF-daMeC-ClAc)] ({CH2CO}-[1Nal]R[Phe(4-CH2NH2)](Ac)[Nle]Y[Nle][NMeF][d(αMeC)]-OH; thioether N-8) | 7.03
10 | CCCC[C@@H]1NC(=O)[C@H](Cc2cncnc2)NC(=O)[C@H](CO)N(C)C(=O)[C@H](Cc2ccccc2)OC(=O)C23CC(CNC(=O)[C@H](Cc4cccnc4)N(C)C(=O)[C@H](CCCC)NC(=O)[C@H](Cc4ccccc4F)NC1=O)(C2)C3 [compound 119, cyclo(FLac-NMeS-PyrimAla-Nle-Phe2F-Nle-NMe3Pal-amBCP)] (cyclo([NMe3Pal][X1][PhLac][NMeS][Ala(pyrimidin-5-yl)][Nle][Phe(2-F)][Nle])) | 0.375
11 | CCCC[C@@H]1NC(=O)[C@H](Cc2cccnc2)NC(=O)[C@H](CCCNC(=N)N)N(C)C(=O)[C@H](Cc2ccccc2)NC(=O)[C@@H]2C[C@H]2CNC(=O)[C@H](Cc2ccccc2)N(C)C(=O)[C@H](CCCCN=[N+]=[N-])NC(=O)[C@H](Cc2ccc(OC)cc2)NC1=O [compound 94, cyclo(F-NMeR-3Pal-Nle-TyrOMe-LysN3-NMeF-tamcPr)] (cyclo(F[NMeR][3Pal][Nle]Y(Me)[Lys(N3)][NMeF][X21])) | 0.224
12 | C[C@H]1C(=O)N[C@@H](Cc2cncnc2)C(=O)N[C@@H](CC2CCC2)C(=O)N[C@@H](Cc2ccccc2F)C(=O)N[C@@H](CCC(C)(C)F)C(=O)N(C)[C@@H](Cc2ccccc2)C(=O)NCC23CC(C2)(C3)C(=O)O[C@@H](Cc2ccccc2)C(=O)N1C [compound 225, cyclo(FLac-NMeA-PyrimAla-cBuA-Phe2F-hL3F-NMeF-amBCP)] (cyclo([Cba][Phe(2-F)][X11][NMeF][X1][PhLac][NMeA][Ala(pyrimidin-5-yl)])) | 0.00187
13 | CCCCC[C@@H]1NC(=O)[C@H](Cc2ccc(OC)cc2)NC(=O)[C@H](CC2CCC2)NC(=O)[C@H](Cc2ccc(N3CCC[C@H]3CN)cc2)NC(=O)[C@H](CCCNC(=N)N)NC(=O)[C@H](Cc2ccccc2)NC(=O)CSC[C@@](C)(C(N)=O)NC(=O)[C@H](Cc2ccccc2)N(C)C1=O [compound 392, cyclo(F-R-Phe4SamPyrr-cBuA-TyrOMe-Ahp-NMeF-aMeCl-ClAc)] | 0.00859
14 | CCCC[C@@H]1NC(=O)[C@H](Cc2cccnc2)NC(=O)[C@H](C)N(C)C(=O)[C@H](Cc2ccccc2)OC(=O)C23CC(CNC(=O)[C@H](Cc4cccnc4)N(C)C(=O)[C@H](CCC)NC(=O)[C@H](Cc4ccccc4F)NC1=O)(C2)C3 [compound 116, cyclo(FLac-NMeA-3Pal-Nle-Phe2F-Nva-NMe3Pal-amBCP)] (cyclo([3Pal][Nle][Phe(2-F)][Nva][NMe3Pal][X1][PhLac][NMeA])) | 0.154
15 | CCCC[C@@H]1NC(=O)[C@H](CCCNC(=N)N)NC(=O)[C@H](Cc2ccccc2)NC(=O)CSCCNC(=O)[C@H](Cc2ccccc2)N(C)C(=O)[C@H](CCCC)NC(=O)[C@H](Cc2ccc(O)cc2)NC(=O)[C@H](CC(C)C)NC1=O [compound 81, cyclo(F-R-Nle-L-Y-Nle-NMeF-Cysteamine-ClAc)] (cyclo(FR[Nle]LY[Nle][NMeF][NHCH2CH2SCH2CO])) | 7.98
16 | CCCC[C@@H]1NC(=O)[C@H](Cc2ccc(O)cc2)NC(=O)[C@H](CC(C)C)NC(=O)[C@H](Cc2ccc(OC)cc2)NC(=O)[C@H](CCCNC(=N)N)NC(=O)[C@H](Cc2ccccc2)NC(=O)CSCCNC(=O)[C@H](Cc2ccccc2)N(C)C1=O [compound 72, cyclo(F-R-TyrOMe-L-Y-Nle-NMeF-Cysteamine-ClAc)] | 2.25
17 | CCCC[C@@H]1NC(=O)[C@H](Cc2cncnc2)NC(=O)[C@H](C)N(C)C(=O)[C@H](Cc2ccccc2)OC(=O)C23CC(CNC(=O)[C@H](Cc4ccccc4)N(C)C(=O)[C@H](CCC(C)C)NC(=O)[C@H](Cc4ccccc4F)NC1=O)(C2)C3 [compound 132, cyclo(FLac-NMeA-PyrimAla-Nle-Phe2F-hL-NMeF-amBCP)] (cyclo([NMeA][Ala(pyrimidin-5-yl)][Nle][Phe(2-F)][hLeu][NMeF][X1][PhLac])) | 0.00787
18 | CCCCC[C@@H]1NC(=O)[C@H](Cc2ccc(OC)cc2)NC(=O)[C@H](CC2CCC2)NC(=O)[C@H](Cc2ccn(C)n2)NC(=O)[C@H](CCCNC(=N)N)NC(=O)[C@H](Cc2ccccc2)NC(=O)CSC[C@@](C)(C(N)=O)NC(=O)[C@H](Cc2ccccc2)N(C)C1=O [compound 362, cyclo(F-R-MePyzAla-cBuA-TyrOMe-Ahp-NMeF-aMeCl-ClAc)] | 1.81
19 | CC(C)CC[C@@H]1NC(=O)[C@H](Cc2ccccc2F)NC(=O)[C@H](CC2CC2)NC(=O)[C@H](Cc2cncnc2)NC(=O)[C@H](C)N(C)C(=O)[C@H](Cc2ccccc2)OC(=O)C23CC(CNC(=O)[C@H](Cc4ccc(F)nc4)N(C)C1=O)(C2)C3 [compound 339, cyclo(FLac-NMeA-PyrimAla-cPrA-Phe2F-hL-NMe3Pal4F-amBCP)] (cyclo([Ala(cPr)][Phe(2-F)][hLeu][X8][X1][PhLac][NMeA][Ala(pyrimidin-5-yl)])) | 0.001
20 | CCCC[C@@H]1NC(=O)[C@H](Cc2ccc(O)cc2)NC(=O)[C@H](CC2CCOCC2)NC(=O)[C@H](Cc2ccc(NC(=N)N)cc2)NC(=O)[C@H](CCCNC(=N)N)NC(=O)[C@H](Cc2cccc3ccccc23)NC(=O)CSC[C@H](C(=O)O)NC(=O)[C@H](Cc2ccccc2)N(C)C1=O [compound 147, cyclo(INal-R-Phe4Gn-AlaTHP4-Y-Nle-NMeF-dC-ClAc)] ({CH2CO}-[1Nal]R[Phe(4-guanidino)][Ala(4-THP)]Y[Nle][NMeF][dC]-OH; thioether N-8) | 0.512
21 | CCCCC[C@@H]1NC(=O)[C@H](Cc2ccc(OC)cc2)NC(=O)[C@H](CC2CCC2)NC(=O)[C@H](Cc2ccc(-c3cccnc3N)cc2)NC(=O)[C@H](CCCNC(=N)N)NC(=O)[C@H](Cc2ccccc2)NC(=O)CSC[C@@](C)(C(N)=O)NC(=O)[C@H](Cc2ccccc2)N(C)C1=O [compound 390, cyclo(F-R-Phe43PyNH2-cBuA-TyrOMe-Ahp-NMeF-aMeCl-ClAc)] | 0.00917
22 | CC(C)CC[C@@H]1NC(=O)[C@H](Cc2ccccc2F)NC(=O)[C@H](CC2CC2)NC(=O)[C@H](Cc2cccnc2)NC(=O)[C@H](C)N(C)C(=O)[C@H](Cc2ccccc2)OC(=O)C23CC(CNC(=O)[C@H](Cc4cncc(F)c4)N(C)C1=O)(C2)C3 [compound 283, cyclo(FLac-NMeA-3Pal-cPrA-Phe2F-hL-NMe3Pal5F-amBCP)] (cyclo([3Pal][Ala(cPr)][Phe(2-F)][hLeu][NMe3Pal(5-F)][X1][PhLac][NMeA])) | 0.003
